Data set [1] deals with human tumor xenografts (CHLA-20, SK-N-AS, A673, A549, S462TY). The data set can be described thus: In vivo efficacy, human tumor xenograft models. As to the method: Female athymic nude mice were subcutaneously injected with 5 × 10^6 human cancer cells in 150 μL mix of PBS and matrigel (2:1). The mice were then randomized into groups of six animals for each tumor type. This number was chosen because we sought a large effect size and to minimize numbers of mice. When tumors reached a mean volume of 150 mm^3, the animals were treated with RC16 or vehicle alone (PBS), given slowly through the tail vein at the dose of 1 mg/kg, 3 times a week for 3 weeks or orally gavaged at the dose of 2 mg/kg/day for 3 weeks.
Endpoint criteria included tumor volume > 2000 mm3, body weight loss ≥ 20%, unusual mouse behavior, lack of movement and poor posture. Tumor size was measured using digital calipers on alternate days and tumor volume was calculated using the following formula: a x b^2 π/6 where a is the longest diameter and b is the shortest diameter. Mice were also weighed and observed 3 times per week for signs of endpoint condition.
A general note: A xenograft is tissue or cells of one species grown in another, often human tumour cells in immunodeficient mice.

In another data set the test system is A673. The data set can be described thus: MTT cell proliferation assay, A673. The class given is cell-based. The conditions noted are these: Homo sapiens, A673, Ewing's Sarcoma, read-out: Cell killing activity IC50. As to the method:
(§1) Cells were plated in 96-well tissue culture plates at a density of 1 × 10^3 cells/well, allowed to attach 24 h, and then left untreated or treated with growth medium containing different concentrations of the tested RCn compounds previously dissolved in PBS. After different time periods the cell vitality was determined by MTT assay according to the manufacture’s instruction (Promega). Results are reported as the micromolar concentration of RCn reducing cell survival to 50% (IC50).
On the technique in general: Tetrazolium dyes change colour on reduction, which living cells bring about.

Data set [2] can be described thus: Maximum tolerated dose in mice. The following applies: female, mouse, in vivo; single intravenous injection, non-tumor bearing athymic nude mice. On the procedure: To determine the MTD, a standard assay dose escalation study was performed. Non-tumor bearing, female, athymic nude mice were injected once with RC16 by the tail vein starting with 0.5 mg/kg. The doses were escalated by 0.25 mg/kg until MTD was achieved. Following convention, each dose was tested on a cohort of 5 mice in individual independent experiments. MTD was defined as the highest dose that could be given resulting in no drug-related moribund state or death or body weight loss ≥ 20% in the first 7 days. Other signs of toxicity such as unusual mouse behavior, lack of movement and poor posture were also monitored. Mice were weighed and observed 3 times per week for any signs of toxicity.

Another data set has as its system WIDr. Kind of data set: MTT cell proliferation assay, WIDr. In kind it is cell-based. The following applies: Homo sapiens, adult tumor cell line, read-out: Cell killing activity IC50. As to the method: as §1
The next data set deals with Ramos. Kind of data set: MTT cell proliferation assay, Ramos. The conditions noted are these: Homo sapiens, Lymphoma, read-out: Cell killing activity IC50. The class given is cell-based. On the procedure:
as §1

A further data set relates to MDA-MB-231. The data set can be described thus: MTT cell proliferation assay, MDA-MB-231. In kind it is cell-based. The conditions noted are these: Homo sapiens, MDA-MB-231, adult tumor cell line, read-out: Cell killing activity IC50. On the procedure:
as §1

A further data set in a line: Micelle size by TEM. In kind it is physicochemical. The conditions noted are these: RC16 micelles self-assembled in water. As to the method:
TEM studies were carried out on SH-SY5Y cells and HFs incubated with 5 μM RC16 for 24 h. Cells were seeded on cover glasses for 24 h and then the medium was replaced with a fresh one containing 5 μM RC16 for 24 h. At the end of the treatment the samples were washed with PBS and fixed with 2.5% glutaraldehyde in 0.1 M phosphate buffer for 2 h at 4°C and subsequently post-fixed with 1% OsO4 in 0.1 M phosphate buffer for 1 h at room temperature. After several washes the samples were dehydrated in an acetone series (70, 90, 100%) and embedded in Epon resin (Fluka, Sigma-Aldrich). Thin sections were collected on nickel grids, stained with uranyl acetate and lead citrate, and observed under a TEM (Philips CM10; FEI). Images were recorded using a Megaview III digital camera (FEI). […] To this purpose an aqueous solution of RC16 (20 μM) was stained with 2% (w/v) phosphotungstic acid for 3 min on a copper grid and subsequently it was visualized under TEM.

We go through 1 compound from article PMC5040747, “Preparation and Evaluation of a Novel Class of Amphiphilic Amines as Antitumor Agents and Nanocarriers for Bioactive Molecules” (Pharmaceutical Research, 2016).

Where two headings read alike, the source gives them in different places.

For orientation: IC50 means the concentration needed to halve the response being measured. By MTD is commonly meant the highest dose tested that stayed within the study's limit of toxicity. A high value points to better tolerability. In the case of `CCCCCCCCCCCCCCC1CN2CCCN3CCCCCC132` (stereo not drawn) [RC16, 2-tetradecyl-4,8-diazatricyclo[6.5.0.0^1,^4]tridecane], the “Antitumor activity (inhibition of tumor growth, RTV)” value in data set [1] (1 mg/kg i.v. 3 times a week for 3 weeks or 2 mg/kg/day oral gavage for 3 weeks) is “strong antitumor activity”. For the same compound, the “Weight loss or signs of toxicity during treatment” value in data set [1] (i.v. 1 mg/kg 3 times a week or gavage 2 mg/kg/day, 3 weeks) was “No weight loss or signs of toxicity”. In addition, the IC50 in the data set with A673 (24 h) was determined as 0.8 µM; in the data set with A673 (48 h), 0.65 µM; in the data set with WIDr (24 h), 7.3 µM; in the data set with WIDr (48 h) it was 6.02 µM; in the data set with Ramos (24 h), 0.1 µM; in the data set with Ramos (48 h) it was 0.04 µM. The IC50 in the data set on MDA-MB-231 (24 h) turned out to be 2.96 µM; in the data set on MDA-MB-231 (48 h), 1.67 µM. Also, the MTD at 7 days in data set [2] came out at 4 mg/kg. Besides, the Micelle mean diameter in the data set “Micelle size by TEM” was 20–30 nm.
